The values that follow come from PMC8568133, “Evaluation of bisphenylthiazoles as a promising class for combating multidrug-resistant fungal infections” (PLoS ONE, 2021).

For one data set, the system named is Aspergillus fumigatus. Briefly: Antifungal broth microdilution MIC (50% growth inhibition). The data set is classed as cell-based. On the procedure:
(§1) Serial dilutions (from 128 μg/mL to 0.06 μg/mL) of the tested compounds and control drugs (fluconazole, itraconazole and amphotericin) (in triplicates), were screened against clinical isolates of Candida albicans, Candida auris, Candida glabrata, Candida parapsilosis, Candida tropicalis, Candida krusei, Cryptococcus neoformans, Cryptococcus gattii and Aspergillus fumigatus species using the broth microdilution method according to the Clinical and Laboratory Standards Institute guidelines. MICs were determined as the lowest concentration of the compounds that inhibited the fungal growth by 50% after incubation at 35 °C for 24 h (for Candida and Aspergillus), or 48 h (for Cryptococcus). The minimum fungicidal concentration (MFC) of these compounds was tested by plating 4 μL from wells with no growth onto YPD agar plates. The plates were incubated at 37 °C for 24 hours before recording the MFC, which was categorized as the lowest concentration that reduced fungal growth by 99.9% [45]. The experiment was repeated three independent times.
(Dilution methods test growth across graded concentrations, often in twofold steps.)

In the next data set the test system is Candida parapsilosis. Described as above. The data set is classed as cell-based. On the procedure:
as §1

For data set [1], the system named is E. coli BW25113 (wild-type). The data set is described as follows: Broth microdilution MIC, initial antibacterial screening. The data set is classed as cell-based, Escherichia coli. How it is done:
(§2) The minimum inhibitory concentrations (MICs) of the tested compounds and control drugs against clinically-relevant bacterial strains were determined using the broth microdilution method, according to guidelines outlined by the Clinical and Laboratory Standards Institute (CLSI), or as described previously.
(§3) Initial screening of the bisphenylthiazoles against Gram-positive and Gram-negative bacteria. Bacterial strains, (except C. difficile that was grown anaerobically on brain heart infusion supplemented agar at 37° C for 48 hours), were grown aerobically overnight on tryptone soy agar plates at 37° C. Afterwards, a bacterial solution equivalent to 0.5 McFarland standard was prepared and diluted in cation-adjusted Mueller-Hinton broth (CAMHB) (for S. aureus, and E. coli) to achieve a bacterial concentration of about 5 × 10^5 CFU/mL. C. difficile was diluted in brain heart infusion supplemented broth, supplemented with yeast extract, hemin and vitamin K to achieve a bacterial concentration of about 5 × 10^5 CFU/mL. Compounds and control drugs were added in the first row of the 96 -well plates, and serially diluted with the corresponding media containing bacteria. Plates were then, incubated aerobi cally at 37° C for 18-20 hours (for S. aureus and E. coli). C. difficile was incubated anaerobically at 37° C for 48 hours. […]
(§4) the visual growth of bacteria.

The subject of the next data set is Candida krusei. The data set is described as follows: Antifungal broth microdilution MIC (50% growth inhibition) and MFC. The data set is classed as cell-based. How it is done: as §1
The next data set concerns Candida auris. The description is as above. The data set is classed as cell-based. On the procedure:
as §1

The next data set concerns Candida albicans. The data set is described as above. The data set is classed as cell-based. How it is done:
as §1

The next data set relates to Candida glabrata. Described as above. The data set is classed as cell-based. On the procedure: as §1
For a further data set, the system named is Candida tropicalis. The description is as above. As to conditions: C. tropicalis ATCC 1369. The data set is classed as cell-based. How it is done:
as §1

In data set [2] the test system is human colorectal cells (Caco-2). Briefly: In vitro cytotoxicity, MTS assay. As to conditions: Caco-2, 24 h exposure, MTS. How it is done: (§5) Fig 2 In vitro cytotoxicity assay of bisphenylthiazole compounds 7, 16 and 17 (tested in triplicates at 32, 64 and 128 μg/mL) against: A) human colorectal cells (Caco-2), and B) monkey kidney epithelial cells (Vero) after 24-hours exposure time, using the MTS 3-(4,5-dimethylthiazol-2-yl)-5-(3-carboxymethoxyphenyl)-2-(4-sulfophenyl)-2H-tetrazolium) assay. The data represent the percentage of viable Caco-2 or Vero cells measured as the average absorbance relative to DMSO after exposure to the tested compounds. Dimethyl sulfoxide (DMSO) was used as a negative control. Error bars represent the standard deviation values.
(§6) To explore the tolerability of bisphenylthiazoles, their cytotoxicity profile was assessed in human colorectal adenocarcinoma (Caco-2) and monkey kidney epithelial cells (Vero) as described earlier. Briefly, compounds were incubated with the cells for 24 hours. Then, cells were incubated with MTS reagent for 3 hours before measuring the absorbance values (OD490). The experiment was repeated in two independent times.
A general note: Formazan colour is commonly taken as a measure of viable cells.

Data set [3] has as its system monkey kidney epithelial cells (Vero). Briefly: In vitro cytotoxicity, MTS assay. On the procedure:
as §5, §6

Data set [4] has as its system C. difficile ATCC BAA1870. The data set is described as follows: Broth microdilution MIC, initial antibacterial screening (anaerobic). The data set is classed as cell-based, Clostridioides difficile. On the procedure: as §2, §3, §4
For data set [5], the system named is Lactobacillus crispatus HM-370. The data set is described as follows: Broth microdilution MIC against normal human microbiota. The data set is classed as cell-based. As to conditions: Lactobacillus crispatus HM-370. How it is done: (§7) Broth microdilution was utilized to determine the activity of bisphenylthiazoles against the human gut microflora as described elsewhere. A bacterial solution equivalent to 0.5 McFarland standards was prepared and diluted in MRS broth to achieve a bacterial concentration of approximately 5 x 10^5 CFU/mL. Then, compounds/control antifungals (in triplicates), were added to the plates and serially diluted with media containing bacteria. The plates were incubated for 48 hours at 37 °C before recording the MIC values. The experiment was repeated three independent times.

For data set [6], the system named is Lactobacillus gasseri HM-400. Described as above. The note with it: Lactobacillus gasseri HM-400. The data set is classed as cell-based. On the procedure: as §7
Data set [7] relates to Lactobacillus casei ATCC-334. Described as above. As to conditions: Lactobacillus casei ATCC-334. The data set is classed as cell-based. How it is done: as §7
The next data set has as its system MRSA USA300. Briefly: Broth microdilution MIC, initial antibacterial screening. The data set is classed as cell-based, S. aureus. As to conditions: MRSA USA300. On the procedure:
as §2, §3, §4

Data set [8] concerns E. coli JW55031 (tolC-mutant). Briefly: microbe, parasite or virus in culture. The data set is classed as cell-based, Escherichia coli. How it is done:
as §2, §3, §4

A further data set has as its system Cryptococcus neoformans. The data set is described as follows: Antifungal broth microdilution MIC (50% growth inhibition, 48 h). The data set is classed as cell-based. On the procedure:
as §1

Another data set has as its system Cryptococcus gattii. The data set is described as above. The data set is classed as cell-based. On the procedure:
as §1

The mark [9] stands for this setting: Escherichia coli, read-out: MIC.
The mark [10] stands for this setting: Candida albicans, C. albicans SS5314 (wild-type), read-out: MIC.
[11] abbreviates: Clostridioides difficile, ATCCBAA1870, read-out: MIC.
[12] abbreviates: Staphylococcus aureus, read-out: MIC.

As a reminder, the CC50 is the concentration giving 50% cytotoxicity. One may read the melting point as the temperature of the solid-liquid transition.

In brackets after ≈: the same amount, converted by molar mass. Where two headings read alike, the source gives them in different places.

Turning to `Cc1nc(-c2ccc(-c3ccccc3)cc2)sc1-c1nnc(N[C@@H]2CCCC[C@H]2N)o1` (relative stereo) [Compound 16, N-{5-[2-((1,1’-Biphenyl)-4-yl)-4-methylthiazol-5-yl]-1,3,4-oxadiazol-2-yl}cyclo-hexane-trans-1,2-diamine], the MIC against Aspergillus fumigatus (A. fumigatus NR 35303) is 4 µg/mL (≈ 9.27 µM); in the data set with Aspergillus fumigatus (A. fumigatus NR 35304) it was 4 µg/mL (≈ 9.27 µM); against Candida parapsilosis (C. parapsilosis ATCC 22019), 1 µg/mL (≈ 2.32 µM); in the data set on Candida parapsilosis (C. parapsilosis CAB 502638) it was 1 µg/mL (≈ 2.32 µM); in data set [1] it was over 64 µg/mL; in the data set with Candida krusei (C. krusei ATCC 34135), 1 µg/mL (≈ 2.32 µM). Also, the MIC was 1 µg/mL (≈ 2.32 µM) in the data set on Candida krusei (C. krusei CAB 396420); 1 µg/mL (≈ 2.32 µM) in the data set on Candida auris (C. auris 381); 2 µg/mL (≈ 4.63 µM) in the data set with Candida auris (C. auris 382); 1 µg/mL (≈ 2.32 µM) with Candida auris (C. auris 383); 1 µg/mL (≈ 2.32 µM) against Candida auris (C. auris 384); 2 µg/mL (≈ 4.63 µM) with Candida auris (C. auris 385). In addition, the MIC against Candida auris (C. auris 386) came out at 1 µg/mL (≈ 2.32 µM); against Candida auris (C. auris 387), 2 µg/mL (≈ 4.63 µM); against Candida auris (C. auris 388), 1 µg/mL (≈ 2.32 µM); in the data set with Candida auris (C. auris 389), 2 µg/mL (≈ 4.63 µM); against Candida auris (C. auris 390), 1 µg/mL (≈ 2.32 µM); with Candida albicans, 2 µg/mL (≈ 4.63 µM). For the same compound, the MIC was 4 µg/mL (≈ 9.27 µM) in the data set with Candida albicans (C. albicans ATCC 10231); 1 µg/mL (≈ 2.32 µM) in the data set on Candida albicans (C. albicans SS5314 (wild-type)); 1 µg/mL (≈ 2.32 µM) against Candida glabrata (C. glabrata ATCC 66032); 1 µg/mL (≈ 2.32 µM) in the data set on Candida glabrata (C. glabrata ATCC MYA-2950); 4 µg/mL (≈ 9.27 µM) in the data set on Candida tropicalis; 32 µg/mL (≈ 74.1 µM) in [4]. Also, the MIC in data set [5] was over 128 µg/mL; in [6] it was over 128 µg/mL; in [7], over 128 µg/mL; in the data set on MRSA USA300, 64 µg/mL (≈ 148 µM); in data set [8] (E. coli JW55031 (tolC-mutant)) it was 64 µg/mL (≈ 148 µM); with Cryptococcus neoformans (C. neoformans NR 41298), 1 µg/mL (≈ 2.32 µM). For the same compound, the MIC with Cryptococcus neoformans (C. neoformans NR 41300), in the data set on Cryptococcus neoformans (C. neoformans NR 48770), against Cryptococcus gattii (C. gattii NR 43209) and with Cryptococcus gattii (C. gattii NR 43210) was 1 µg/mL (≈ 2.32 µM) each time. In addition, the “MIC against Aspergillus fumigatus” value against Aspergillus fumigatus (tested A. fumigatus isolates (Table 5)) worked out at 4 µg/mL (≈ 9.27 µM). Besides, the CC50 in [2] is over 128 µg/mL. For the same compound, the “concentration up to which non-toxic” value in data set [2] is at most 64 µg/mL; in data set [3] (Vero, 24 h exposure, MTS), at most 64 µg/mL. Moreover, the “times more tolerable than amphotericin B” value in data set [3] (relative to amphotericin B) is reported as 16 times.

As for `Cc1nc(-c2ccc(-c3ccccc3)cc2)sc1-c1nnc(N2CCCCC2CN)o1` (stereo not drawn) [Compound 15, {1-[5-(2-((1,1’-Biphenyl)-4-yl)-4-methylthiazol-5-yl)-1,3,4-oxadiazol-2-yl]piperidin-2-yl}methanamine], the melting point is 225 to 227 °C. For the same compound, in data set [1] (setting [9]), the MIC was over 64 µg/mL. In the data set on Candida albicans (setting [10]), the MIC worked out at 16 µg/mL (≈ 37.1 µM). Moreover, the MIC in data set [4] (setting [11]) was found to be 16 µg/mL (≈ 37.1 µM). Further, the MIC with MRSA USA300 (setting [12]) turned out to be 16 µg/mL (≈ 37.1 µM). In data set [8] (Escherichia coli), this compound gave an MIC of 16 µg/mL (≈ 37.1 µM).

On to `Cc1nc(-c2ccc(-c3ccccc3)cc2)sc1-c1nnc(N[C@H]2CC[C@H](N)CC2)o1` [Compound 18, trans-N-{5-[2-((1,1’-Biphenyl)-4-yl)-4-methylthiazol-5-yl]-1,3,4-oxadiazol-2-yl}cyclo-hexane-1,4-diamine], for which the melting point lay within 260 to 263 °C. The MIC in [1] (setting [9]) is over 64 µg/mL. Also, the MIC with Candida albicans (setting [10]) worked out at 16 µg/mL (≈ 37.1 µM). Further, the MIC in data set [4] (setting [11]) was found to be 8 µg/mL (≈ 18.5 µM). In the data set on MRSA USA300 (setting [12]), the MIC was determined as 32 µg/mL (≈ 74.1 µM). In addition, the MIC in [8] (Escherichia coli) was 32 µg/mL (≈ 74.1 µM).

Turning to `Cc1nc(-c2ccc(-c3ccccc3)cc2)sc1-c1nnc(NC2CCNC2)o1` (stereo not drawn) [Compound 10, 5-{2-[(1,1’-Biphenyl)-4-yl]-4-methylthiazol-5-yl}-N-(pyrrolidin-3-yl)-1,3,4-oxadiazol-2-amine], the melting point is 116 to 117 °C. Further, the MIC in [1] (setting [9]) was over 64 µg/mL. Moreover, the MIC in the data set on Candida albicans (setting [10]) came to 8 µg/mL (≈ 19.8 µM). The MIC in [4] (setting [11]) turned out to be 32 µg/mL (≈ 79.3 µM). Also, the MIC in the data set with MRSA USA300 (setting [12]) is over 64 µg/mL. Also, in data set [8] (Escherichia coli), the MIC is over 64 µg/mL.

The compound `Cc1nc(-c2ccc(-c3ccccc3)cc2)sc1-c1nnc(N2CC[C@H](N(C)C)C2)o1` [Compound 12, (S)-1-{5-[2-((1,1’-biphenyl)-4-yl)-4-methylthiazol-5-yl]-1,3,4-oxadiazol-2-yl}-N,N-dimethylpyrrolidin-3-amine] registered a melting point of 185 to 187 °C. In addition, the MIC in data set [1] (setting [9]) was over 64 µg/mL. Moreover, the MIC in the data set with Candida albicans (setting [10]) was found to be 16 µg/mL (≈ 37.1 µM). Also, the MIC in data set [4] (setting [11]) was 32 µg/mL (≈ 74.1 µM). The MIC in the data set with MRSA USA300 (setting [12]) amounted to 16 µg/mL (≈ 37.1 µM). The compound also showed an MIC in data set [8] (Escherichia coli) of over 64 µg/mL.
